Assay results: article PMC434488 (BMC Biochemistry, 2004)

Experiments:
[1] = biological target: S. cerevisiae carbamylphosphate synthetase – aspartate transcarbamylase multifunctional protein (CPSase-ATCase complex) (Saccharomyces cerevisiae, UniProt P07259, E2182K); format: biochemical
[2] = biological target: S. cerevisiae carbamylphosphate synthetase – aspartate transcarbamylase multifunctional protein (CPSase-ATCase complex) (Saccharomyces cerevisiae, UniProt P07259); format: biochemical
Sequence of S. cerevisiae carbamylphosphate synthetase – aspartate transcarbamylase multifunctional protein (CPSase-ATCase complex) (Saccharomyces cerevisiae, UniProt P07259) (P07259 2-2214, one chain of several): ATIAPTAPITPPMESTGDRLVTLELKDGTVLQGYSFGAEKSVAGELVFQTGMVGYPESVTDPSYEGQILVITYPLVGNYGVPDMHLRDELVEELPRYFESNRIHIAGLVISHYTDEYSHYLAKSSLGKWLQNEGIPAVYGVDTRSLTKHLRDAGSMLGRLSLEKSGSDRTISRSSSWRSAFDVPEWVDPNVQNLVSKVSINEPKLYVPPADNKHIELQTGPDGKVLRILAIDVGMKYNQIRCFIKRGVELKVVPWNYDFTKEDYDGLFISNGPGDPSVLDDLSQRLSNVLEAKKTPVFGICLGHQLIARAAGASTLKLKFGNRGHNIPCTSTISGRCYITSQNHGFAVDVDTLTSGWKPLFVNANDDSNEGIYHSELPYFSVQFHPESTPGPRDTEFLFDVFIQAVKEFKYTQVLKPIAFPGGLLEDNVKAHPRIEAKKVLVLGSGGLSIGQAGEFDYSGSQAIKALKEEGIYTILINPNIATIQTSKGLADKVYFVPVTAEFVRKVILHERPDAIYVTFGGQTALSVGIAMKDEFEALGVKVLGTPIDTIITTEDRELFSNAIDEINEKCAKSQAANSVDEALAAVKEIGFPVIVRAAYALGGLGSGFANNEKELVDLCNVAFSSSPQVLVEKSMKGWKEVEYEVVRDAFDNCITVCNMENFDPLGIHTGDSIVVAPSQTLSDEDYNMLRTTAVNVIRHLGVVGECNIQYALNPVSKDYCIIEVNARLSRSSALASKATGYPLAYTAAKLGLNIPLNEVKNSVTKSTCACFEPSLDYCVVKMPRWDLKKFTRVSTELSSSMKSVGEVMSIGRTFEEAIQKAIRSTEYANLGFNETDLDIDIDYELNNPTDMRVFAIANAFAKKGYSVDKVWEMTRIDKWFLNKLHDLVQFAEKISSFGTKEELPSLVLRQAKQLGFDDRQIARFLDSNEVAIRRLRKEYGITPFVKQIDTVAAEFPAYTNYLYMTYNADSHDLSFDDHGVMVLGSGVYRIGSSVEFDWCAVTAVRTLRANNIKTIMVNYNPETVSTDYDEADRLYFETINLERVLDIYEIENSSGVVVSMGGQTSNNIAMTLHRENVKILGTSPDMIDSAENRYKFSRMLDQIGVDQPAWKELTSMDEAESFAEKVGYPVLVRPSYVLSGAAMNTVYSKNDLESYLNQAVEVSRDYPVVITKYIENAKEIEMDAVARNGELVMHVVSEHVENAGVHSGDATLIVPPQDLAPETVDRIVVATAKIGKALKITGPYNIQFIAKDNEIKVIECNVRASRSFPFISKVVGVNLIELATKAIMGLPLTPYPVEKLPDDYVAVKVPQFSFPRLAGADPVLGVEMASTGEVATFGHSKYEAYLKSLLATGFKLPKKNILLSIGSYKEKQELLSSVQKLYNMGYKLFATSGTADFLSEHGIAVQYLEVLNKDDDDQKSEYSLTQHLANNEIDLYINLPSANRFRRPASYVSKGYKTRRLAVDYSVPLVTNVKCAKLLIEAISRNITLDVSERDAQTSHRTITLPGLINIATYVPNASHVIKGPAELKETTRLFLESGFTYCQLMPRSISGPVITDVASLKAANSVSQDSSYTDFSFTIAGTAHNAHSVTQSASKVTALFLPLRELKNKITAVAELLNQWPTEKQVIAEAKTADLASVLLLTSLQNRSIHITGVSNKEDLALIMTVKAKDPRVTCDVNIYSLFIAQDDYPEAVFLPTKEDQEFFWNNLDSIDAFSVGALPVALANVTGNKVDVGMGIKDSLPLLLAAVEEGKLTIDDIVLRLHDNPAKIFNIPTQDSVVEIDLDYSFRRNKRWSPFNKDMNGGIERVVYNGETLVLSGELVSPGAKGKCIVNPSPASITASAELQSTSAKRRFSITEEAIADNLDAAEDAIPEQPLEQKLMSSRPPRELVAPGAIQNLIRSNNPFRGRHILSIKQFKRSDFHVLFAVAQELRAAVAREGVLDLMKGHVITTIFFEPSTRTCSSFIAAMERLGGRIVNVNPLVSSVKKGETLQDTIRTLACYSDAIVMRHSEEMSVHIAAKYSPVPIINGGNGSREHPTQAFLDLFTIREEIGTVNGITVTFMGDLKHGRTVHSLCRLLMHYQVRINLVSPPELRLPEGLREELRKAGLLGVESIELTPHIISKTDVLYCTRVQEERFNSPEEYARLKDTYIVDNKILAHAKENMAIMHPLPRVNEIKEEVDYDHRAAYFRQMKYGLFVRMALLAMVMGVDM

Sequence of S. cerevisiae carbamylphosphate synthetase – aspartate transcarbamylase multifunctional protein (CPSase-ATCase complex) (Saccharomyces cerevisiae, UniProt P07259, E2182K) (P07259 2-2214 E2182K, one chain of several): as the sequence (P07259 2-2214, one chain of several) above, with E2181K counted along it

Ki [1]: 3000 ± 1000 µM
IC50 [2]: 800 µM
SMILES: O=c1ccn([C@@H]2O[C@H](COP(=O)(O)OP(=O)(O)OP(=O)(O)O)[C@@H](O)[C@H]2O)c(=O)[nH]1 [UTP]
